Among the data in the Kinase Knowledgebase extract (Sharma et al. 2016) are IC50 values, retold here.

This assay concerns the target MAPK14 (human) (UniProt Q16539). In words: Assessment of MAPK14 Kinase Activity.

Sequence of MAPK14 (human) (Q16539 whole entry, looked up): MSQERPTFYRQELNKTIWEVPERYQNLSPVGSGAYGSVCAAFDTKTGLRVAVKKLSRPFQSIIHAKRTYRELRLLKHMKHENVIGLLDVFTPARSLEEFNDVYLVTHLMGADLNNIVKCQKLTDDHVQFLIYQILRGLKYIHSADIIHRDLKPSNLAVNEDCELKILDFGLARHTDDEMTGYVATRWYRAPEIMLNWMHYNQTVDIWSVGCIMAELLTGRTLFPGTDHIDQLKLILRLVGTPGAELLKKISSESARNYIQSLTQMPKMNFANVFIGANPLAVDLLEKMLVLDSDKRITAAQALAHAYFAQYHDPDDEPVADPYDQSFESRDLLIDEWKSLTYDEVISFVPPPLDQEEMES

As to `Cc1cc(OCc2ccccc2CNC(=O)Nc2cc(C(C)(C)C)nn2-c2ccc(O)c(Cl)c2)c(Cl)c(=O)n1Cc1ccc(C(=O)CN)cc1`, the IC50 (as a rule, the concentration that gives 50% inhibition) stood at 3.6 nM.

`Cc1ccc(C(=O)OCCN(C)C)cc1-n1c(C)cc(OCc2ccc(F)cc2CNC(=O)Nc2cc(C(C)(C)C)nn2-c2cccc(OCCO)c2)c(Cl)c1=O` registered an IC50 of 1.4 nM.

`Cc1cc(OCc2ccccc2CNC(=O)Nc2cc(C(C)(C)C)nn2-c2ccc(Cl)c(O)c2)c(Cl)c(=O)n1Cc1ccc(C(=O)CN)cc1` gave an IC50 of 2.4 nM.

As to `Cc1cc(OCc2ccccc2CNC(=O)Nc2cc(C(C)(C)C)nn2-c2ccc(O)c(Cl)c2)c(Cl)c(=O)n1Cc1cccc(C(O)C(N)=O)c1` (stereo unspecified), the IC50 was 8.9 nM.

In turn, `COc1ccccc1Cn1c(C)cc(OCc2ccccc2CNC(=O)Nc2cc(C(C)CSC)nn2-c2cccc(O)c2)c(Cl)c1=O` (stereo unspecified) came in with an IC50 of 20.5 nM.

`Cc1ccc(C(=O)N[C@H](C)C(N)=O)cc1-n1c(C)cc(OCc2ccccc2CNC(=O)Nc2cc(C(C)(C)C)nn2-c2ccc(O)c(Cl)c2)c(Cl)c1=O` yielded an IC50 of 2.5 nM.

`Cc1ccc(C(=O)OCCO)cc1-n1c(C)cc(OCc2ccc(F)cc2CNC(=O)Nc2cc(C(C)(C)C)nn2-c2cccc(OCCO)c2)c(Cl)c1=O` showed an IC50 of 1.7 nM.

In the case of `COC(=O)c1ccc(C)c(-n2c(SC)nc(OCc3ccc(F)cc3CNC(=O)Nc3cc(C(C)(C)C)nn3-c3ccc(C)cc3)cc2=O)c1`, the IC50 was 9.55 nM. This IC50 lies about 5.6-fold higher than the previous one.

Compound `Cc1cc(OCc2ccccc2CNC(=O)Nc2cc(C3CC3)nn2-c2ccccc2)c(Br)c(=O)n1Cc1ccccc1` showed a half-maximal inhibitory concentration (IC50) of 176 nM.

Compound `COC(=O)c1ccc(Cn2c(C)cc(OCc3ccccc3CNC(=O)Nc3cc(C(C)(C)C)nn3-c3ccc(C)cc3)c(Br)c2=O)cc1` yielded an IC50 of 16.9 nM.

Consider `CCc1c(OCc2ccccc2CNC(=O)Nc2cc(C(C)(C)C)nn2-c2cccc(F)c2)ncn(Cc2ccccc2)c1=O`, for which the IC50 worked out at 11 nM.
